Columns and labels:
[1] = test system: OVA sensitized mice; assay: Lung histopathology of OVA sensitized and aerosol challenged mice; assay type: in vivo, mouse (BALB/c); details: LXa 10 μg; OVA-allergic mice
Description: FIG. 2. Lung histopathology from LXa treated mice. Mice were sensitized and aerosol challenged with OVA in the absence (left column) or presence (right column) of LXa (10 μg). Representative (n=3) lung tissue sections (magnifications: ×40 (a,b), ×100 (d), ×200 (c,e) and ×400 (f)) were obtained from formalin-fixed, paraffin-embedded lung tissue, prepared and stained with hematoxylin and eosin. Arrows denote eosinophils; br, bronchus; v, vessel.
(§1) Sensitization and challenge protocols. Five to seven week old male BALB/c (Charles River Laboratories, Wilmington, Mass.) or female hCD11b-hALX FvB transgenic mice were housed in isolation cages under viral antibody-free conditions. […] On day 18, 24 h after the last aerosol challenge, airway responsiveness to intravenous methacholine (33-1000 μg/kg) was measured, bilateral bronchoalveolar lavage (BAL) (2 aliquots of 1 ml PBS plus 0.6 mM EDTA) was performed and tissues (whole blood, lungs, mediastinal lymph nodes and spleen) were harvested for histological analysis. Lung resistance (RL) was measured using a sealed constant mass plethysmograph. […] For mice studied using a whole body plethysmograph to assess airway responsiveness (Buxco), each mouse was placed into a chamber and box pressure/time waveform was analyzed to yield the indicator of airflow obstruction, enhanced pause (Penh). […] Readings were initiated at 3 min and continued for 12 min. […]

[2] = test system: OVA sensitized and challenged mice; assay: Leukocytes in bronchoalveolar lavage fluid (Wright-Giemsa stain) of OVA sensitized and challenged mice; assay type: in vivo, mouse (BALB/c); details: LXa i.v.
Description: FIG. 3. […] Bronchoalveolar lavage fluids were obtained from OVA sensitized and challenged mice. Leukocytes in bronchoalveolar lavage fluid were enumerated and identified after Wright-Giemsa stain (a). Mediator profile of (b) specific cytokines (IL-5, IL-12, IL-13, eotaxin and TNFα), and lipid mediators, including PGE2 (c), LTB4 and cysLT's (d) were determined by ELISA's in materials from control animals and those receiving LXa (10 μg, i.v.). Results are expressed as mean±SEM (n≧6, d≧2). *P<0.05 by Student's t-test compared to control animals.
as §1, with “min. Peak and one min average Penh values were determined. Serum total IgE levels were determined by ELISA (Crystal Chem, Chicago, Ill.).” for “min.”
Allergen-initiated respiratory inflammation. Measurement of inflammatory mediators was determined in cell-free BAL fluid (2000 g, 10 min) by sensitive and specific ELISA's, in tandem, for interleukin-5 (IL-5), IL-13, eotaxin, tumor necrosis factor (TNFα) (R&D Systems, Minneapolis, Minn.), LTB4, cysteinyl LT, PGE2 (Cayman Chemical Co., Ann Arbor, Mich.), and LXA4 (Neogen, Lexington, Ky.). […]

[3] = target: T1, recombinant cysLT1 receptors (Homo sapiens, UniProt Q9Y271); details: CHO cells, in vitro (ref. 12); cited from earlier work
T1 construct: host or cells: Chinese hamster ovary cells (recombinant expression)
T1 sequence (Q9Y271 1-337): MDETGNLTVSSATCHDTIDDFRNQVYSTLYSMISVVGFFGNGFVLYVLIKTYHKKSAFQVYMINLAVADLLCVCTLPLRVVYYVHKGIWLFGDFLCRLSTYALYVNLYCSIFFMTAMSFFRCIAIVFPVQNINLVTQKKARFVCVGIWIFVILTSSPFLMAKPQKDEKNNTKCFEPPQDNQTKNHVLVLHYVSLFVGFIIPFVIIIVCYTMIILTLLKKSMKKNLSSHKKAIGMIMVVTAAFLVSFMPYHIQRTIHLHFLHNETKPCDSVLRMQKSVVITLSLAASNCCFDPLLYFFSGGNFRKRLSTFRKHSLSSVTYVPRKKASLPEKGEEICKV

## COC(=O)CCC[C@H](O)[C@H](O)/C=C/C=C/C=C\C=C\[C@H](O)COc1ccc(F)cc1 [LXa, 15-epi,16-para-fluoro-phenoxy-LXA4-methyl ester]
[1]
  lung tissue leukocyte infiltration (tissue eosinophils and lymphocytes) and vascular injury: significantly reduced leukocyte infiltration
[2]
  BAL eosinophils: sharply reduced in a dose-dependent fashion
  BAL lymphocytes: sharply reduced in a dose-dependent fashion
  BAL total leukocytes: sharply reduced in a dose-dependent fashion
[3]
  competition for binding at LTD4 recognition sites and recombinant cysLT1 receptors: compete for binding with high affinity at LTD4 recognition sites

From US8119691B2, “Method for treating airway hyper-responsiveness with lipoxin analogs” (National Institutes of Health (NIH), priority 2001, dated 2012)
